Source: ChEMBL document CHEMBL1649335, “Discovery of {1-[4-(2-{hexahydropyrrolo[3,4-c]pyrrol-2(1H)-yl}-1H-benzimidazol-1-yl)piperidin-1-yl]cyclooctyl}methanol, systemically potent novel non-peptide agonist of nociceptin/orphanin FQ receptor as analgesic for the treatment of neuropathic pain: design, synthesis, and structure-activity …” (Bioorg Med Chem, 2010)
Active and inactive are the calls of the source.

Legend:
[1] = Drug level Sprague-Dawley rat brain at 10 mg/kg, sc after […]; format: ADME, organism-based; design: dose 10 mg/kg, route subcutaneous; settings: read-out: Drug uptake
[2] = Drug level Sprague-Dawley rat spinal cord at 10 mg/kg, sc after […]; format: ADME, organism-based; design: dose 10 mg/kg, route subcutaneous; settings: read-out: Drug uptake
Rattus norvegicus [3] = assay: Antiallodynic activity against von Frey hair mechanically stimulated neuropathic pain in sc dosed Sprague-Dawley rat assessed as increase of response threshold after 1 hr; format: functional
Rattus norvegicus [4] = assay: Antiallodynic activity against von Frey hair mechanically stimulated neuropathic pain in sc dosed Sprague-Dawley rat assessed as increase of response threshold after 4 hrs; format: functional
Rattus norvegicus [5] = assay: Antiallodynic activity against von Frey hair mechanically stimulated neuropathic pain in sc dosed Sprague-Dawley rat assessed as assessed as minimum effective dose to increase of response threshold after 30 mins; format: functional
Rattus norvegicus [6] = assay: Antiallodynic activity against von Frey hair mechanically stimulated neuropathic pain in intrathecally dosed Sprague-Dawley rat assessed as increase of response threshold per site after 20 mins; format: functional
Rattus norvegicus [7] = assay: Antiallodynic activity against von Frey hair mechanically stimulated neuropathic pain in intrathecally dosed Sprague-Dawley rat assessed as increase of response threshold per site after 1 hr; format: functional
Rattus norvegicus [8] = assay: Antiallodynic activity against von Frey hair mechanically stimulated neuropathic pain in intrathecally dosed Sprague-Dawley rat assessed as assessed as minimum effective dose to increase of response threshold per site after 20 mins; format: functional
Rattus norvegicus [9] = assay: Antiallodynic activity against von Frey hair mechanically stimulated neuropathic pain in icv dosed Sprague-Dawley rat assessed as increase of response threshold per site after 20 mins; format: functional
Rattus norvegicus [10] = assay: Antiallodynic activity against von Frey hair mechanically stimulated neuropathic pain in Sprague-Dawley rat assessed as increase of response threshold per site at 5.5 to 170 nmol/site, icv after 1 hr; format: functional, organism-based
Rattus norvegicus [11] = assay: Antiallodynic activity against von Frey hair mechanically stimulated neuropathic pain in icv dosed Sprague-Dawley rat assessed as assessed as minimum effective dose to increase of response threshold per site after 20 mins; format: functional
Rattus norvegicus [12] = assay: Antiallodynic activity against von Frey hair mechanically stimulated neuropathic pain in Sprague-Dawley rat assessed as assessed as minimum effective dose to increase of response threshold per site at 5.5 to 170 nmol/site, icv after 1 hr; format: functional, organism-based
Rattus norvegicus [13] = assay: Antiallodynic activity against von Frey hair mechanically stimulated neuropathic pain in sc dosed Sprague-Dawley rat assessed as assessed as minimum effective dose to increase of response threshold after 4 hrs; format: functional, organism-based
Rattus norvegicus [14] = assay: Antiallodynic activity against von Frey hair mechanically stimulated neuropathic pain in sc dosed Sprague-Dawley rat assessed as increase of response threshold; format: functional, organism-based
Rattus norvegicus [15] = assay: Antiallodynic activity against von Frey hair mechanically stimulated neuropathic pain in Sprague-Dawley rat assessed as increase of response threshold at 30 mg/kg, sc after 2 hrs relative to control; format: functional; settings: route subcutaneous
Rattus norvegicus [16] = assay: Antiallodynic activity against von Frey hair mechanically stimulated neuropathic pain in Sprague-Dawley rat assessed as effect on allodynia in contralateral paw at 1 to 30 mg/kg, sc after 30 mins; format: functional, organism-based
Rattus norvegicus [17] = assay: Antiallodynic activity against von Frey hair mechanically stimulated neuropathic pain in Sprague-Dawley rat assessed as effect on allodynia in contralateral paw at 1 to 30 mg/kg, sc after 2 hrs; format: functional, organism-based
Rattus norvegicus [18] = assay: Antiallodynic activity against von Frey hair mechanically stimulated neuropathic pain in Sprague-Dawley rat assessed as effect on allodynia in contralateral paw at 1 to 30 mg/kg, sc after 4 hrs; format: functional, organism-based
Rattus norvegicus [19] = assay: Antiallodynic activity against von Frey hair mechanically stimulated neuropathic pain in Sprague-Dawley rat assessed as effect on allodynia in contralateral paw at 5.5 to 170 nmol/site administered intrathecally after 1 hr; format: functional, organism-based
Rattus norvegicus [20] = assay: Antiallodynic activity against von Frey hair mechanically stimulated neuropathic pain in Sprague-Dawley rat assessed as increase of response threshold per site at 55 nmol/site administered intrathecally after 1 hr relative to control; format: functional
Rattus norvegicus [21] = assay: Toxicity in von Frey hair mechanically stimulated neuropathic pain Sprague-Dawley rat model assessed as sedation effect at up to 30 mg/kg, sc; format: organism-based; design: dose 30 mg/kg, route subcutaneous; settings: in vivo
[22] = biological target: Sodium-dependent noradrenaline transporter (Homo sapiens) (UniProt P23975); assay: Inhibition of human norepinephrine transporter at 1 uM relative to control
Sequence of Sodium-dependent noradrenaline transporter (Homo sapiens) (P23975 whole entry): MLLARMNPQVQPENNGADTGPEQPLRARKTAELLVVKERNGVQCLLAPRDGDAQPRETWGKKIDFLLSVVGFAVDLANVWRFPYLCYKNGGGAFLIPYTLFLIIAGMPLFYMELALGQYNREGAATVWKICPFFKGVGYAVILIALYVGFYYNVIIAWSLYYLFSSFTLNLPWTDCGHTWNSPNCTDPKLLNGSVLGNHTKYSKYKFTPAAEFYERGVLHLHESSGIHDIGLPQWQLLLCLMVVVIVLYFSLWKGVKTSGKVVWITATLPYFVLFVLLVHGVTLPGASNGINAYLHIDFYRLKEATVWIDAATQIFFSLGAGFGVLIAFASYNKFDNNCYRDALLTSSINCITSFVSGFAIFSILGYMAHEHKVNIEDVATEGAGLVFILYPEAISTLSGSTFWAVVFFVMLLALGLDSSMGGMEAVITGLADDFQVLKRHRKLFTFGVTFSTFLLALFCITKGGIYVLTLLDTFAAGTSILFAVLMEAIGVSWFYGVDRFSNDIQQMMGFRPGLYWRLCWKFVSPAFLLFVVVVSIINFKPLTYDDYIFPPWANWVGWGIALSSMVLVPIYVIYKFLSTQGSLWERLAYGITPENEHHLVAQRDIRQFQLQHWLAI

[23] = biological target: Type-1 angiotensin II receptor (Homo sapiens) (UniProt P30556); assay: Inhibition of human angiotensin 2 AT1 receptor at 1 uM relative to control
Sequence of Type-1 angiotensin II receptor (Homo sapiens) (P30556 whole entry): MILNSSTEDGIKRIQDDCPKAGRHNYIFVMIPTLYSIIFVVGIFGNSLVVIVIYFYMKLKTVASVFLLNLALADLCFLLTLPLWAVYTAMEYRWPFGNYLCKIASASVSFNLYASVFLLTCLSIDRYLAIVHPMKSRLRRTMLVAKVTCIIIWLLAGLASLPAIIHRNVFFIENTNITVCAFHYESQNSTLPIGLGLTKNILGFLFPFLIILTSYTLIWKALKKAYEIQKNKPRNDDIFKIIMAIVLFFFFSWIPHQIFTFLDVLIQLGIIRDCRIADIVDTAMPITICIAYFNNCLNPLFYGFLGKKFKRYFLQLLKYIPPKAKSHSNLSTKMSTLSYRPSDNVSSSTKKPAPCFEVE

[24] = biological target: Type-2 angiotensin II receptor (Homo sapiens) (UniProt P50052); assay: Inhibition of human angiotensin 2 AT2 receptor at 1 uM relative to control
Sequence of Type-2 angiotensin II receptor (Homo sapiens) (P50052 whole entry): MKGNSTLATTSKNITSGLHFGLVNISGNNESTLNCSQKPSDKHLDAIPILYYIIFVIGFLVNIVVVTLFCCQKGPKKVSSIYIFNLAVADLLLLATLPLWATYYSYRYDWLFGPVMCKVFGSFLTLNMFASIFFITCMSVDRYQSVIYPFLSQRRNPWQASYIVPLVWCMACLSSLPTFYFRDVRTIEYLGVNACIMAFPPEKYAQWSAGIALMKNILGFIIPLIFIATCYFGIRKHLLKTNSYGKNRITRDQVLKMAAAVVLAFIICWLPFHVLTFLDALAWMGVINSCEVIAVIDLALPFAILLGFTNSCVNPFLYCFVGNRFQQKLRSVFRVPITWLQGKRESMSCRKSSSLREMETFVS

Rattus norvegicus [25] = organism: Rattus norvegicus; assay: Inhibition of rat central benzodiazepine receptor at 1 uM relative to control
[26] = biological target: Cannabinoid receptor 1 (Homo sapiens) (UniProt P21554); assay: Inhibition of human cannabinoid CB1 receptor at 1 uM relative to control
Sequence of Cannabinoid receptor 1 (Homo sapiens) (P21554 whole entry): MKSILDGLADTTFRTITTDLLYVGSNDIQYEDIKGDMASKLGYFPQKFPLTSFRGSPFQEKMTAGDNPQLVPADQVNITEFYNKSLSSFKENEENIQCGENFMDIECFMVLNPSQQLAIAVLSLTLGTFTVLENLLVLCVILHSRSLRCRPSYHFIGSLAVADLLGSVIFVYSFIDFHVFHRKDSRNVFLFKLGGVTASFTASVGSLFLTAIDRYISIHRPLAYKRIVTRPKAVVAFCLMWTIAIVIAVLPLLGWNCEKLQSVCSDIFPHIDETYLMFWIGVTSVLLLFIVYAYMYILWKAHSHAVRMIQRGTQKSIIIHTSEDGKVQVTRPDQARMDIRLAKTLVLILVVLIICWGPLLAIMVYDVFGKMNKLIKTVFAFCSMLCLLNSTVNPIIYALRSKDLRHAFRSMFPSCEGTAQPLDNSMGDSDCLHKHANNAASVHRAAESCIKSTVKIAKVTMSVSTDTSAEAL

[27] = biological target: D(3) dopamine receptor (Homo sapiens) (UniProt P35462); assay: Inhibition of human dopamine D3 receptor at 1 uM relative to control
Sequence of D(3) dopamine receptor (Homo sapiens) (P35462 whole entry): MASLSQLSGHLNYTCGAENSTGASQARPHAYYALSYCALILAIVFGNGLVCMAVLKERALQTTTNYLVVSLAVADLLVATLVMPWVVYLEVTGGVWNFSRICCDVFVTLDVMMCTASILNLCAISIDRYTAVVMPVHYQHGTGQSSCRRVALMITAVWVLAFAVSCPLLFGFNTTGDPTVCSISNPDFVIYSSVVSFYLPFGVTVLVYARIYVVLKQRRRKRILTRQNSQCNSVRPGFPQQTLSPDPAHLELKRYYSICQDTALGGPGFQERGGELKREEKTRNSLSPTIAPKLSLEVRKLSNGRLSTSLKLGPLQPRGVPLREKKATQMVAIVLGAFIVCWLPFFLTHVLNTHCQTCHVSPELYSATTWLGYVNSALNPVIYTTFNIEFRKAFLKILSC

Rattus norvegicus [28] = organism: Rattus norvegicus; assay: Inhibition of rat GABA transporter at 1 uM relative to control
Rattus norvegicus [29] = organism: Rattus norvegicus; assay: Inhibition of rat kainate receptor at 1 uM relative to control
Rattus norvegicus [30] = organism: Rattus norvegicus; assay: Inhibition of rat glycine receptor at 1 uM relative to control
[31] = biological target: Histamine H3 receptor (Rattus norvegicus) (UniProt Q9QYN8); assay: Inhibition of rat histamine H3 receptor at 1 uM relative to control
Sequence of Histamine H3 receptor (Rattus norvegicus) (Q9QYN8 whole entry): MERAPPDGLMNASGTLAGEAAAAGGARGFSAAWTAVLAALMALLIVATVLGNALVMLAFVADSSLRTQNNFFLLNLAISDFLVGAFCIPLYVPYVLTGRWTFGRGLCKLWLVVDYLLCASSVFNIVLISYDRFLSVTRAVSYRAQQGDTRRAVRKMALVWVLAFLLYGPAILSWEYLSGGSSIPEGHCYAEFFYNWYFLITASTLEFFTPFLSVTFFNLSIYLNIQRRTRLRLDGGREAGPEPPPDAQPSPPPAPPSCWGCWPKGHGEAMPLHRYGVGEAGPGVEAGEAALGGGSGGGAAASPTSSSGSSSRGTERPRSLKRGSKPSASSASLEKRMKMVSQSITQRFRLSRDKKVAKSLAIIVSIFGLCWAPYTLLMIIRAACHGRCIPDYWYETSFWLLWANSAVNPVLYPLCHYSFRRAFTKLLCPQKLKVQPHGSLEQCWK

Rattus norvegicus [32] = organism: Rattus norvegicus; assay: Inhibition of rat neuronal-type nicotinic acetylcholine receptor at 1 uM relative to control
Rattus norvegicus [33] = organism: Rattus norvegicus; assay: Inhibition of rat sigma receptor at 1 uM relative to control
[34] = biological target: Glucocorticoid receptor (Homo sapiens) (UniProt P04150); assay: Inhibition of human glucocorticoid receptor at 1 uM relative to control
Sequence of Glucocorticoid receptor (Homo sapiens) (P04150 whole entry): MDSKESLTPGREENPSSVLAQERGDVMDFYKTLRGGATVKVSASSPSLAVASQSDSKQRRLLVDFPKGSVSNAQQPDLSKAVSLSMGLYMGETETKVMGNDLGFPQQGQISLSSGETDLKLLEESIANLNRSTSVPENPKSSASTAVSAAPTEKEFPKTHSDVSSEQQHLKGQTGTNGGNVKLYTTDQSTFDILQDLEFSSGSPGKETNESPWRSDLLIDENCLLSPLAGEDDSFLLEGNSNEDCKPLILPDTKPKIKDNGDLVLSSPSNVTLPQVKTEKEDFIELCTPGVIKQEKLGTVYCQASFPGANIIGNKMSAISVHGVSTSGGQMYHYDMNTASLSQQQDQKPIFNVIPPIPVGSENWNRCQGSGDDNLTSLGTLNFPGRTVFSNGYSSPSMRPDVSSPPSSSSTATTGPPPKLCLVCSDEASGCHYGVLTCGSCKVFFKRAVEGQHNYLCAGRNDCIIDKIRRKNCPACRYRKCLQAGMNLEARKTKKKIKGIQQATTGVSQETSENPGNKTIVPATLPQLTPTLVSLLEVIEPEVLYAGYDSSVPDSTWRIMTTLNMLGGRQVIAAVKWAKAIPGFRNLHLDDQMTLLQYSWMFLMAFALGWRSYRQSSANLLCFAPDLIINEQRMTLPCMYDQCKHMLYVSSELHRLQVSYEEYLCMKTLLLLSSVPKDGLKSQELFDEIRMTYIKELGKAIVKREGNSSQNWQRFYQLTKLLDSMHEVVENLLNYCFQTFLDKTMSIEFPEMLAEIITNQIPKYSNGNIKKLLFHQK

Rattus norvegicus [35] = organism: Rattus norvegicus; assay: Inhibition of rat thyroid hormone receptor at 1 uM relative to control
[36] = biological target: L-type calcium channel, dihydropyridine site (Rattus norvegicus, UniProt P22002+P27732+Q02485); assay: Inhibition of rat L-type calcium channel dihydropyridine site at 1 uM relative to control
[37] = biological target: L-type calcium channel, diltiazem site (Rattus norvegicus, UniProt P22002+P27732+Q02485); assay: Inhibition of rat L-type calcium channel diltiazem site at 1 uM relative to control
[38] = biological target: L-type calcium channel, verapamil site (Rattus norvegicus, UniProt P22002+P27732+Q02485); assay: Inhibition of rat L-type calcium channel verapamil site at 1 uM relative to control
Rattus norvegicus [39] = organism: Rattus norvegicus; assay: Inhibition of rat N-type calcium channel at 1 uM relative to control
[40] = biological target: Small conductance calcium-activated potassium channel protein 1 (Rattus norvegicus) (UniProt P70606); assay: Inhibition of rat SKCa channel at 1 uM relative to control
Sequence of Small conductance calcium-activated potassium channel protein 1 (Rattus norvegicus) (P70606 whole entry): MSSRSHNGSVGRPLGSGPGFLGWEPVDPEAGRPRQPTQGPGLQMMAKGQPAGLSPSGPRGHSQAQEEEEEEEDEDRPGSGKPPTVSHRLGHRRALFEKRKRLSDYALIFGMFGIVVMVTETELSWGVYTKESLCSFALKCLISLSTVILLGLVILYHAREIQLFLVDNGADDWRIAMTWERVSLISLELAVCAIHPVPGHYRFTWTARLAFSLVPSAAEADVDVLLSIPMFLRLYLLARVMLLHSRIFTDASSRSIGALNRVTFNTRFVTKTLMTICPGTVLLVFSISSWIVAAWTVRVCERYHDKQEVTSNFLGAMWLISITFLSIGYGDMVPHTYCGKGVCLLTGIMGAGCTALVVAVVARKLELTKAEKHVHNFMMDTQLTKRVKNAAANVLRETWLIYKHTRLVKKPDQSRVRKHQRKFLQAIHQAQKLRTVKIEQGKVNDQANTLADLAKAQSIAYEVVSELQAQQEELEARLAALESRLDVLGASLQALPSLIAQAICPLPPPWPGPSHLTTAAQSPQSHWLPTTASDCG

Rattus norvegicus [41] = organism: Rattus norvegicus; assay: Inhibition of rat sodium channel site 2 at 1 uM relative to control
Rattus norvegicus [42] = organism: Rattus norvegicus; assay: Inhibition of rat chloride channel at 1 uM relative to control
Rattus norvegicus [43] = organism: Rattus norvegicus; assay: Inhibition of rat phospholipase C at 1 uM relative to control
[44] = biological target: Acetylcholinesterase (Homo sapiens) (UniProt P22303); assay: Inhibition of human acetylcholine esterase at 1 uM relative to control
Sequence of Acetylcholinesterase (Homo sapiens) (P22303 whole entry): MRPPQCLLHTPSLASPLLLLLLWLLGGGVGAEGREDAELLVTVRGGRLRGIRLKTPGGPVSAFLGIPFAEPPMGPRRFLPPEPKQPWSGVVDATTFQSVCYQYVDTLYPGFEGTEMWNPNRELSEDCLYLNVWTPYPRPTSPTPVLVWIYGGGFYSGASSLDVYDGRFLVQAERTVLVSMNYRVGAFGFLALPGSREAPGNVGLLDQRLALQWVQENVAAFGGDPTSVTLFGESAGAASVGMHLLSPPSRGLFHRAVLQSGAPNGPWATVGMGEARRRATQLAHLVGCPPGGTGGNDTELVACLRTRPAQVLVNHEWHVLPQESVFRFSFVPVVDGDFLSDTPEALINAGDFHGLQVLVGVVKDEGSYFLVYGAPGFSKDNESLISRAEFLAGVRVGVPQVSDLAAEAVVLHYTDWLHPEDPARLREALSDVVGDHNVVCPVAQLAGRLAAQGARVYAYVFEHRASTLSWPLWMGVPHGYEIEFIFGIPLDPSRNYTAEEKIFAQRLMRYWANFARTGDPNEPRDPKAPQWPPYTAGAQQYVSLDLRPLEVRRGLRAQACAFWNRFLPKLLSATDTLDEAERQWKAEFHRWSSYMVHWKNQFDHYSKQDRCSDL

Mu-type opioid receptor = Mu-type opioid receptor (Homo sapiens, UniProt P35372)
Sequence of Mu-type opioid receptor (P35372 whole entry): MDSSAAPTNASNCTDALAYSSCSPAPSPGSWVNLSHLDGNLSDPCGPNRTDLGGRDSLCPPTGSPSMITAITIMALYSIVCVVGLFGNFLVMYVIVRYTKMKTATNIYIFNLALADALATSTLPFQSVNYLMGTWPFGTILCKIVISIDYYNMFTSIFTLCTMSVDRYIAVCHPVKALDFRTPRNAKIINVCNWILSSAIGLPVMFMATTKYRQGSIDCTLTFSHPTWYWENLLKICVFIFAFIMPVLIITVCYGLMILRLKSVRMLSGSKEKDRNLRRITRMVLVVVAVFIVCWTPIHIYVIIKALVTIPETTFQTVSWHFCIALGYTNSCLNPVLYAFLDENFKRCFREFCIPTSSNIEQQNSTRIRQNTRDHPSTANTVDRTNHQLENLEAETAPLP

## OCC1(N2CCC(n3c(N4CC5CNCC5C4)nc4ccccc43)CC2)CCCCCCC1 (configuration not stated)
[1]
  concentration at […]: 226 ng/mL
[2]
  concentration at […]: 63 ng/mL
Rattus norvegicus [3]
  ED50: 10.8 mg/kg
Rattus norvegicus [4]
  ED50: > 30 mg/kg
Rattus norvegicus [5]
  MED: 30 mg/kg
Rattus norvegicus [6]
  Activity: Dose-dependent effect
  ED50: 80 nmol
Rattus norvegicus [7]
  Activity: Dose-dependent effect
  ED50: >170 nmol
Rattus norvegicus [8]
  MED: 55 nmol
Rattus norvegicus [9]
  ED50: 170 nmol
Rattus norvegicus [10]
  ED50: inactive
Rattus norvegicus [11]
  MED: 55 nmol
Rattus norvegicus [12]
  MED: inactive
Rattus norvegicus [13]
  MED: inactive
Rattus norvegicus [14]
  Activity: Dose-dependent effect
Rattus norvegicus [15]
  Activity: 35.8%
Rattus norvegicus [16]
  Activity: inactive
Rattus norvegicus [17]
  Activity: inactive
Rattus norvegicus [18]
  Activity: inactive
Rattus norvegicus [19]
  Activity: inactive
Rattus norvegicus [20]
  Activity: 31.1%
Rattus norvegicus [21]
  Activity: Non-toxic
[22]
  inhibition: < 10%
[23]
  inhibition: < 10%
[24]
  inhibition: < 10%
Rattus norvegicus [25]
  inhibition: < 10%
[26]
  inhibition: 18%
[27]
  inhibition: < 10%
Rattus norvegicus [28]
  inhibition: 24%
Rattus norvegicus [29]
  inhibition: 32%
Rattus norvegicus [30]
  inhibition: < 10%
[31]
  inhibition: < 10%
Rattus norvegicus [32]
  inhibition: < 10%
Rattus norvegicus [33]
  inhibition: 10%
[34]
  inhibition: < 10%
Rattus norvegicus [35]
  inhibition: < 10%
[36]
  inhibition at 1 µM: < 10%
[37]
  inhibition at 1 µM: 18%
[38]
  inhibition at 1 µM: < 10%
Rattus norvegicus [39]
  inhibition: < 10%
[40]
  inhibition: < 10%
Rattus norvegicus [41]
  inhibition: < 10%
Rattus norvegicus [42]
  inhibition: < 10%
Rattus norvegicus [43]
  inhibition: < 10%
[44]
  inhibition: < 10%
Mu-type opioid receptor
  EC50: 3.5 µM
